Holding throughout (type): cell-based
For test [1], the target named is T1, 5HT2C receptors (Homo sapiens, UniProt P28335).
T1 sequence (P28335 33-458): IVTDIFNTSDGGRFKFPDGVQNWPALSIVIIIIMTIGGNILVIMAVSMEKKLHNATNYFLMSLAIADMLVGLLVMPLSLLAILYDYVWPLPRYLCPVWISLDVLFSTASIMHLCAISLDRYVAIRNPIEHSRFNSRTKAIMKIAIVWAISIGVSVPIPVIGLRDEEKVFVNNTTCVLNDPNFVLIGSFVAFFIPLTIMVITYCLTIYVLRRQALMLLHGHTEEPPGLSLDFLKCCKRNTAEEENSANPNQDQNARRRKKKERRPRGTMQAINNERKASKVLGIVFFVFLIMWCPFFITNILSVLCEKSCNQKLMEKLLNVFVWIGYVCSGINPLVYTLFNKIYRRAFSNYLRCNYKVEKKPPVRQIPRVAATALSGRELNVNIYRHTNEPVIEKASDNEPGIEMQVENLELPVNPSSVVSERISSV
Nature of the test: Human 5-HT2C functional assay in 1321N1 cells (intracellular calcium, FLIPR). The arrangement: expressed in transfected cells; host or cells: 1321N1 cells. Particulars: 5-HT2c agonist activity, maximum calcium response; call rule not given here. The protocol: (ii) Human 5-HT2C Functional Assay in 1321N1 Cells
Functional activity was determined by testing the effect of the compounds on intracellular calcium levels in 1321N1 cells stably transfected with the human 5-HT2C receptor. Cells were seeded into 96-well plates at 50,000 cells/well and grown overnight in tissue culture medium (DMEM with Glutamax I (Invitrogen), containing 10% dFCS, 50 μg/mL Gentamicin, 400 μg/mL Geneticin) at 37° C. and 7% CO2. Growth medium was replaced by medium without dFCS for overnight incubation. Cells were loaded with a fluorescent calcium-sensitive dye in the presence of 1% probenicid according to the manufacturer's protocol (Fluo4 AM, Molecular Devices). Serial compound dilutions (final concentrations 10^−10 to 10^−5 M) were added to the cells either alone or in the presence of serotonin (10^−9 M) and the maximum calcium response was determined using a FLIPR instrument (Molecular Devices). Concentration-response curves were fitted using a four-parameter logistic equation (GraphPad Prism). The concentration at which the compound exerts half its maximal effect is named the ‘effective concentration 50’ or ‘EC50’ and is listed in Table 2.

Another test deals with T2, 5HT2B receptors (Homo sapiens, UniProt P41595).
T2 construct: expressed in transfected cells; host or cells: CHO-K1 cells
Nature of the test: Human 5-HT2B functional high throughput screening assay in CHO-K1 cells (calcium flux). Particulars: for pEC50: CHO-K1 cells, calcium flux. In a few lines: (§1)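 Calcium flux in CHO-K1 cells overexpressing each receptor, using Ca4 dye with probenecid and FLIPR detection. Top concentration was 10 μM, diluted 1:10 across 6 points, and efficacy was scaled to serotonin.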

The target of test [2] is T1, 5HT2C receptors. Nature of the test: Human 5-HT2C functional high throughput screening assay in CHO-K1 cells (calcium flux). The arrangement: expressed in transfected cells; host or cells: CHO-K1 cells. The note with it: for pEC50: CHO-K1 cells, calcium flux; for Emax: CHO-K1, 5-HT2C, maximum functional response as percentage relative to the effect of serotonin. The essentials:
as §1
For orientation: Calcium assays in cells follow changes in intracellular calcium, usually with a dye or a luminescent sensor.

[3] abbreviates: 5-HT2B agonist activity, read-out: EC50.
Where [4] appears, read: 5-HT2B, maximum functional response as percentage relative to the effect of serotonin.
Where [5] appears, read: 5-HT2C agonist activity, read-out: EC50.

pEC50: −log10 of the molar value. Like-named read-outs stand apart in the source and are kept apart here.

T2 sequence (P41595 whole entry): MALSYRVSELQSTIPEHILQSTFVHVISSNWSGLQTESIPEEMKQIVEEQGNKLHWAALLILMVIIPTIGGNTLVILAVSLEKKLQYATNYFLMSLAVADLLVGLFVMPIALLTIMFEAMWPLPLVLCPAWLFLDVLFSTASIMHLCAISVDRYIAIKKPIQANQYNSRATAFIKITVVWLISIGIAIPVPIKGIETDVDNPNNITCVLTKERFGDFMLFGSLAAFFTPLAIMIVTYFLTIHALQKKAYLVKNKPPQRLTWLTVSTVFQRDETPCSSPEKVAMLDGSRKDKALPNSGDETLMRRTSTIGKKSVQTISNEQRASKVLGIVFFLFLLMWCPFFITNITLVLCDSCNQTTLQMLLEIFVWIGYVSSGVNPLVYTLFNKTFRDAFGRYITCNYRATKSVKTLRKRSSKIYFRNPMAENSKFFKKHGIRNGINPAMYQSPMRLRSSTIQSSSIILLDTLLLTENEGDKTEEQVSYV

Turning to `O=C1NC[C@@H]2CN(Cc3cccc(Cl)c3)C[C@@H]2c2ccccc21` (relative stereo) [Example 41, Cis-2-(3-chlorobenzyl)-1,2,3,3a,4,5-hexahydrobenzo[c]pyrrolo[3,4-e]azepin-6(10bH)-one], the pEC50 – broadly, the EC50 on a negative log10 scale, so that one unit is a factor of ten – at 5HT2C receptors [1] was 8.31.

For `C[C@@H](Cc1ccccc1)Oc1ccc2c(c1)C(=O)NC[C@@H]1CNC[C@@H]21` (mixture of isomers) [Example 149, Trans-8-((S)-1-phenylpropan-2-yloxy)-1,2,3,3a,4,5-hexahydrobenzo[e]pyrrolo[3,4-c]azepin-6(10bH)-one], the negative logarithm of the EC50 (pEC50) is under 5.00 on 5HT2B receptors (setting [3]) and 8.40 at 5HT2C receptors [2] (setting [5]). The Emax (commonly the size of the effect at its maximum, as opposed to the concentration needed) was “inactive” on 5HT2B receptors (setting [4]) and 120% on 5HT2C receptors [2] (read-out: Emax).

On to `COc1ccc2c(c1)OCC[C@H]1CNC[C@H]21` (relative stereo) [Example 280, Trans-8-methoxy-2,3,3a,4,5,10b-hexahydro-1H-[1]benzoxepino[4,5-c]pyrrole], for which the Emax on 5HT2B receptors (CHO-K1) is 60%; at 5HT2C receptors [2], 100%. In addition, the pEC50 on 5HT2B receptors (EC50, 5-HT2B agonist activity) was 7.00; at 5HT2C receptors [2] (EC50, 5-HT2C agonist activity), 7.05.

In the case of `CC(C)Cc1ccc2c(c1)C(=O)NC[C@@H]1CN(C)C[C@@H]21` (relative stereo) [Example 244, Trans-8-isobutyl-2-methyl-1,2,3,3a,4,5-hexahydrobenzo[e]pyrrolo[3,4-c]azepin-6(10bH)-one], the Emax entry is “inactive” at 5HT2B receptors (setting [4]) and 80% on 5HT2C receptors [2]. The pEC50 at 5HT2B receptors (EC50, 5-HT2B agonist activity) was under 5.00; at 5HT2C receptors [2] (EC50, 5-HT2C agonist activity), 7.00.

As for `O=C1NC[C@@H]2CNC[C@H]2c2ccc(OCCc3cccc(F)c3)cc21` (relative stereo) [Example 124, Trans-8-(3-fluorophenethoxy)-1,2,3,3a,4,5-hexahydrobenzo[e]pyrrolo[3,4-c]azepin-6(10bH)-one], the pEC50 at 5HT2B receptors (setting [3]) is under 5.00; on 5HT2C receptors [2] (setting [5]), 7.70. Also, the Emax result is “inactive” on 5HT2B receptors (setting [4]) and over 120% on 5HT2C receptors [2] (read-out: Emax).

As for `CNC(=O)c1cccc(-c2ccc3c(c2)C(=O)NC[C@@H]2CNC[C@@H]32)c1` (relative stereo) [Example 381, N-Methyl-3-[trans-6-oxo-1,2,3,3a,4,5,6,10b-octahydropyrrolo[3,4-d][2]benzazepin-8-yl]benzamide], the pEC50 was under 5.00 on 5HT2B receptors (setting [3]) and 8.00 at 5HT2C receptors [2] (setting [5]). Moreover, the Emax result at 5HT2B receptors (setting [4]) is “inactive”; on 5HT2C receptors [2] (read-out: Emax), 105%.

With `COc1cc(OC)c2c(c1)C(=O)NC[C@@H]1CN(Cc3ccccc3)C[C@@H]21` (relative stereo) [Example 98, Trans-2-benzyl-8,10-dimethoxy-1,2,3,3a,4,5-hexahydrobenzo[c]pyrrolo[3,4-e]azepin-6(10bH)-one], the pEC50 on 5HT2B receptors (setting [3]) was under 5.00; on 5HT2C receptors [2] (setting [5]), 8.00. Further, the Emax result on 5HT2B receptors (setting [4]) is “inactive”; on 5HT2C receptors [2] (read-out: Emax) it was over 120%.

For the molecule `O=C1CCc2ccc(-c3ccc4c(c3)C(=O)NC[C@@H]3CNC[C@@H]43)cc21` (relative stereo) [Example 247, Trans-8-(3-oxo-2,3-dihydro-1H-inden-5-yl)-1,2,3,3a,4,5-hexahydrobenzo[c]pyrrolo[3,4-e]azepin-6(10bH)-one], the pEC50 on 5HT2B receptors (setting [3]) is under 5.00; at 5HT2C receptors [2] (setting [5]), 8.10. Further, the Emax result at 5HT2B receptors (setting [4]) is “inactive”; at 5HT2C receptors [2] (read-out: Emax) it was over 120%.

For the molecule `O=S(=O)(c1ccc(Cl)c(Cl)c1)N1Cc2cccnc2[C@@H]2CNC[C@H]2C1` (relative stereo) [Example 334, Trans-6-[(3,4-dichlorophenyl)sulfonyl]-5,6,7,7a,8,9,10,10a-octahydropyrido[3,2-c]pyrrolo[3,4-e]azepine], the negative-log EC50 (pEC50) on 5HT2B receptors (setting [3]) was under 5.00; on 5HT2C receptors [2] (setting [5]) it was 7.15. Moreover, the maximal response (Emax) entry on 5HT2B receptors (setting [4]) was “inactive”; on 5HT2C receptors [2] (read-out: Emax) it was 90%.

For `CC(=O)c1cccc(-c2ccc3c(c2)C(=O)NC[C@H]2CN(C)C[C@H]32)c1` [Example 278, (3aS,10bS)-8-(3-Acetylphenyl)-2-methyl-1,2,3,3a,4,5-hexahydrobenzo[e]pyrrolo[3,4-c]azepin-6(10bH)-one], the pEC50 on 5HT2B receptors (setting [3]) is under 5.00; at 5HT2C receptors [2] (setting [5]), 8.70. The Emax entry on 5HT2B receptors (setting [4]) was “inactive”; on 5HT2C receptors [2] (read-out: Emax), 120%.

On to `CN1C[C@@H]2CNC(=O)c3cc(F)cc(F)c3[C@H]2C1` [Example 162, (3aS,10bS)-8,10-Difluoro-2-methyl-1,2,3,3a,4,5-hexahydrobenzo[e]pyrrolo[3,4-c]azepin-6(10bH)-one], for which the results for the Emax at 5HT2B receptors (CHO-K1) and at 5HT2C receptors [2] were 40% and over 120%, respectively. Besides, the pEC50 is 7.00 on 5HT2B receptors (EC50, 5-HT2B agonist activity) and 8.10 on 5HT2C receptors [2] (EC50, 5-HT2C agonist activity).

Consider `COc1ccccc1-c1ccc2c(c1)C(=O)NC[C@H]1CN(C)C[C@H]21` [Example 275, (3aS,10bS)-8-(2-Methoxyphenyl)-2-methyl-1,2,3,3a,4,5-hexahydrobenzo[e]pyrrolo[3,4-c]azepin-6(10bH)-one], for which the results for the pEC50 on 5HT2B receptors (setting [3]) and on 5HT2C receptors [2] (setting [5]) were under 5.00 and 7.70, respectively. Further, the Emax result on 5HT2B receptors (setting [4]) was “inactive”; at 5HT2C receptors [2] (read-out: Emax) it was over 120%.

Regarding `O=C1NC[C@@H]2CN(Cc3ccccc3)C[C@H]2c2c1sc1ccccc21` (relative stereo) [Example 97, Trans-2-benzyl-2,3,3a,4,5,11c-hexahydro[1]benzothieno[2,3-c]pyrrolo[3,4-e]azepin-6(1H)-one], the pEC50 was 5.40 on 5HT2B receptors (setting [3]) and 6.00 on 5HT2C receptors [2] (setting [5]). The Emax amounted to 40% on 5HT2B receptors (CHO-K1, 5-HT2B, maximum functional response as percentage relative to the effect of serotonin, read-out: Emax) and 110% on 5HT2C receptors [2] (read-out: Emax).

Take `Cc1ccc(-c2ccc3c(c2)C(=O)NC[C@@H]2CN(C)C[C@@H]32)o1` (relative stereo) [Example 203, Trans-2-methyl-8-(5-methylfuran-2-yl)-1,2,3,3a,4,5-hexahydrobenzo[e]pyrrolo[3,4-c]azepin-6(10bH)-one]: the values for the pEC50 on 5HT2B receptors (setting [3]) and on 5HT2C receptors [2] (setting [5]) were under 5.00 and 8.22, respectively. In addition, the Emax result at 5HT2B receptors (setting [4]) is “inactive”; at 5HT2C receptors [2] (read-out: Emax) it was over 120%.

Take `CN1C[C@@H]2CCOc3ccccc3[C@H]2C1` [Example 235, (3aR,10bS)-2-Methyl-2,3,3a,4,5,10b-hexahydro-1H-[1]benzoxepino[4,5-c]pyrrole]: the Emax on 5HT2B receptors (CHO-K1) came to 45%; on 5HT2C receptors [2] it was 120%. Besides, the pEC50 on 5HT2B receptors (EC50, 5-HT2B agonist activity) is 7.00; at 5HT2C receptors [2] (EC50, 5-HT2C agonist activity), 7.40.

`Clc1cccc2c1NCC[C@@H]1CNC[C@@H]21` (relative stereo) [Example 392, Trans-7-chloro-1,2,3,3a,4,5,6,10b-octahydropyrrolo[3,4-d][1]benzazepine]: the maximal response (Emax) on 5HT2B receptors (CHO-K1) came out at 65%; at 5HT2C receptors [2], 100%. For the same molecule, the pEC50 on 5HT2B receptors (EC50, 5-HT2B agonist activity) was 7.40; on 5HT2C receptors [2] (EC50, 5-HT2C agonist activity) it was 9.15.

`Cc1ccc2c(c1)OCC[C@H]1CNC[C@H]21` (relative stereo) [Example 373, Trans-8-methyl-2,3,3a,4,5,10b-hexahydro-1H-[1]benzoxepino[4,5-c]pyrrole]: the figures for the Emax at 5HT2B receptors (CHO-K1) and at 5HT2C receptors [2] were 70% and 100%, respectively. For the same molecule, the pEC50 is 7.30 at 5HT2B receptors (EC50, 5-HT2B agonist activity) and 8.22 at 5HT2C receptors [2] (EC50, 5-HT2C agonist activity).

Consider `O=C1NC[C@@H]2CNC[C@H]2c2ccc(-c3ccc(F)cc3)cc21` (relative stereo) [Example 219, Trans-8-(4-fluorophenyl)-1,2,3,3a,4,5-hexahydrobenzo[e]pyrrolo[3,4-c]azepin-6(10bH)-one], for which the pEC50 at 5HT2B receptors (setting [3]) was under 5.00. Further, the Emax result was “inactive” at 5HT2B receptors (setting [4]) and over 120% at 5HT2C receptors [2] (read-out: Emax).

On to `COc1cc(F)ccc1-c1ccc2c(c1)C(=O)NC[C@H]1CN(C)C[C@H]21` [Example 326, (3aS,10bS)-8-(4-Fluoro-2-methoxyphenyl)-2-methyl-2,3,3a,4,5,10b-hexahydropyrrolo[3,4-d][2]benzazepin-6(1H)-one], for which the pEC50 was under 5.00 at 5HT2B receptors (setting [3]) and 8.05 on 5HT2C receptors [2] (setting [5]). Further, the Emax result on 5HT2B receptors (setting [4]) is “inactive”; on 5HT2C receptors [2] (read-out: Emax), 85%.

For the origin of these results see US8846951B2 (AbbVie Inc., priority 2009, dated 2014).
